{"source": "paper PMC4157643", "about": "(Journal of pharmaceutical sciences, 2012)", "key": {"[1]": {"conditions": "retina to scleral (R-S) direction, isolated rabbit RCS; ref [4]; cited from earlier work"}, "in vivo": {"test": "in vivo", "conditions": "male, New Zealand white, rabbit"}, "[2]": {"conditions": "ref [2],[4], cited from earlier work"}, "[3]": {"conditions": "ref Ameer et al., [10]; cited from earlier work"}, "[4]": {"conditions": "vitreous humor, two-compartment model, n=4"}}, "note": "“And” between values parts separate entries of the source, which are not always exact repeats. Equal entries are not always repeated. Where two headings read alike, the source gives them in different places."}
{"compound": "COc1ccc([C@@H]2CC(=O)c3c(O)cc(O)cc3O2)cc1O", "note": "[hesperetin, Hesperetin]", "values": [{"measurement": "apparent permeability", "setting": "[1]", "value": "2.52 ± 0.51 × 10^−6 cm/s"}, {"measurement": "Vd", "setting": "in vivo", "value": "0.001 to 0.0015", "unit": "L"}, {"measurement": "AUC", "setting": "in vivo; 1.5 ug", "value": 2980, "unit": "ng·h/mL"}, {"measurement": "Cmax", "setting": "in vivo; 1.5 ug", "value": "1020 ± 200", "unit": "ng/mL"}, {"measurement": "clearance", "setting": "in vivo; 1.5 ug, CL", "value": "0.0093 ± 0.004", "unit": "mL/min"}, {"measurement": "half-life", "setting": "in vivo; 1.5 ug, T1/2", "value": "1.83 ± 0.467", "unit": "h"}, {"measurement": "AUC", "setting": "in vivo; 4.5 ug", "value": 7920, "unit": "ng·h/mL"}, {"measurement": "Cmax", "setting": "in vivo; 4.5 ug", "value": "4510 ± 570", "unit": "ng/mL"}, {"measurement": "clearance", "setting": "in vivo; 4.5 ug, CL", "value": "0.0096 ± 0.0015", "unit": "mL/min"}, {"measurement": "half-life", "setting": "in vivo; 4.5 ug, T1/2", "value": "1.48 ± 0.233", "unit": "h"}, {"measurement": "AUC", "setting": "in vivo; 15 ug", "value": 29100, "unit": "ng·h/mL"}, {"measurement": "Cmax", "setting": "in vivo; 15 ug", "value": "14700 ± 1990", "unit": "ng/mL"}, {"measurement": "clearance", "setting": "in vivo; 15 ug, CL", "value": "0.0086 ± 0.0007", "unit": "mL/min"}, {"measurement": "half-life", "setting": "in vivo; 15 ug, T1/2", "value": "1.38 ± 0.167", "unit": "h"}, {"measurement": "clearance", "setting": "in vivo; 15 ug, clearance rate (CL)", "value": "0.0086 to 0.0096", "unit": "mL/min"}, {"measurement": "half-life", "setting": "in vivo; 15 ug, elimination half-life (T1/2)", "value": "1.39 to 1.84", "unit": "h"}]}
{"compound": "COc1ccc([C@@H]2CC(=O)c3c(O)cc(O[C@@H]4O[C@H](CO[C@@H]5O[C@@H](C)[C@H](O)[C@@H](O)[C@H]5O)[C@@H](O)[C@H](O)[C@H]4O)cc3O2)cc1O", "note": "[hesperidin, Hesperidin]", "values": [{"measurement": "log P", "setting": "[2]", "value": "1.79 and 1.78"}, {"measurement": "apparent permeability", "setting": "[1]", "value": "1.51 ± 0.78 × 10^−6 cm/s"}, {"measurement": "oral bioavailability", "setting": "[3]", "value": "< 25", "unit": "%"}, {"measurement": "AUC", "setting": "[4]; intravitreal dose 1.5 µg", "value": "651 ± 88", "unit": "µg·min/mL"}, {"measurement": "Alpha", "setting": "[4]; intravitreal dose 1.5 µg", "value": "0.0267 ± 0.0077", "unit": "min⁻¹"}, {"measurement": "Alpha_HL", "setting": "[4]; intravitreal dose 1.5 µg", "value": "28 ± 7", "unit": "min"}, {"measurement": "Beta", "setting": "[4]; intravitreal dose 1.5 µg", "value": "0.0016 ± 0.0004", "unit": "min⁻¹"}, {"measurement": "Beta_HL", "setting": "[4]; intravitreal dose 1.5 µg", "value": "386 ± 116", "unit": "min"}, {"measurement": "CL", "setting": "[4]; intravitreal dose 1.5 µg", "value": "0.0027 ± 0.0003", "unit": "mL/min"}, {"measurement": "CLD2", "setting": "[4]; intravitreal dose 1.5 µg", "value": "0.0058 ± 0.0010", "unit": "mL/min"}, {"measurement": "Cmax", "setting": "[4]; intravitreal dose 1.5 µg", "value": "3260 ± 1350", "unit": "ng/mL"}, {"measurement": "MRT", "setting": "[4]; intravitreal dose 1.5 µg", "value": "9.08 ± 1.77", "unit": "h"}, {"measurement": "V2", "setting": "[4]; intravitreal dose 1.5 µg", "value": "0.75 ± 0.62", "unit": "mL"}, {"measurement": "Vss", "setting": "[4]; intravitreal dose 1.5 µg", "value": "1.48 ± 0.42", "unit": "mL"}, {"measurement": "AUC", "setting": "[4]; intravitreal dose 4.5 µg", "value": "1575 ± 164", "unit": "µg·min/mL"}, {"measurement": "Alpha", "setting": "[4]; intravitreal dose 4.5 µg", "value": "0.0249 ± 0.0109", "unit": "min⁻¹"}, {"measurement": "Alpha_HL", "setting": "[4]; intravitreal dose 4.5 µg", "value": "31 ± 11", "unit": "min"}, {"measurement": "Beta", "setting": "[4]; intravitreal dose 4.5 µg", "value": "0.0017 ± 0.0003", "unit": "min⁻¹"}, {"measurement": "Beta_HL", "setting": "[4]; intravitreal dose 4.5 µg", "value": "407 ± 58", "unit": "min"}, {"measurement": "CL", "setting": "[4]; intravitreal dose 4.5 µg", "value": "0.0029 ± 0.0003", "unit": "mL/min"}, {"measurement": "CLD2", "setting": "[4]; intravitreal dose 4.5 µg", "value": "0.0054 ± 0.0026", "unit": "mL/min"}, {"measurement": "Cmax", "setting": "[4]; intravitreal dose 4.5 µg", "value": "10820 ± 1120", "unit": "ng/mL"}, {"measurement": "MRT", "setting": "[4]; intravitreal dose 4.5 µg", "value": "7.47 ± 0.917", "unit": "h"}, {"measurement": "V2", "setting": "[4]; intravitreal dose 4.5 µg", "value": "0.87 ± 0.21", "unit": "mL"}, {"measurement": "Vss", "setting": "[4]; intravitreal dose 4.5 µg", "value": "1.29 ± 0.21", "unit": "mL"}, {"measurement": "AUC", "setting": "[4]; intravitreal dose 15 µg", "value": "4835 ± 861", "unit": "µg·min/mL"}, {"measurement": "Alpha", "setting": "[4]; intravitreal dose 15 µg", "value": "0.0358 ± 0.0084", "unit": "min⁻¹"}, {"measurement": "Alpha_HL", "setting": "[4]; intravitreal dose 15 µg", "value": "20 ± 5", "unit": "min"}, {"measurement": "Beta", "setting": "[4]; intravitreal dose 15 µg", "value": "0.0014 ± 0.0004", "unit": "min⁻¹"}, {"measurement": "Beta_HL", "setting": "[4]; intravitreal dose 15 µg", "value": "466 ± 98", "unit": "min"}, {"measurement": "CL", "setting": "[4]; intravitreal dose 15 µg", "value": "0.0032 ± 0.0005", "unit": "mL/min"}, {"measurement": "CLD2", "setting": "[4]; intravitreal dose 15 µg", "value": "0.0130 ± 0.0026", "unit": "mL/min"}, {"measurement": "Cmax", "setting": "[4]; intravitreal dose 15 µg", "value": "25230 ± 3020", "unit": "ng/mL"}, {"measurement": "MRT", "setting": "[4]; intravitreal dose 15 µg", "value": "11.1 ± 3.07", "unit": "h"}, {"measurement": "V2", "setting": "[4]; intravitreal dose 15 µg", "value": "1.46 ± 0.40", "unit": "mL"}, {"measurement": "Vss", "setting": "[4]; intravitreal dose 15 µg", "value": "2.07 ± 0.35", "unit": "mL"}]}
{"compound": "glucosyl hesperidin [hesperidin G]", "values": [{"measurement": "log P", "setting": "[2]", "value": "−3.2"}, {"measurement": "log P", "setting": "[2]; listed as Hesperidin G", "value": "< −3.2"}, {"measurement": "AUC", "setting": "[4]; intravitreal dose 1.5 µg", "value": "688 ± 47", "unit": "µg·min/mL"}, {"measurement": "Alpha", "setting": "[4]; intravitreal dose 1.5 µg", "value": "0.045 ± 0.019", "unit": "min⁻¹"}, {"measurement": "Alpha_HL", "setting": "[4]; intravitreal dose 1.5 µg", "value": "17 ± 6", "unit": "min"}, {"measurement": "Beta", "setting": "[4]; intravitreal dose 1.5 µg", "value": "0.0014 ± 0.0002", "unit": "min⁻¹"}, {"measurement": "Beta_HL", "setting": "[4]; intravitreal dose 1.5 µg", "value": "495 ± 66", "unit": "min"}, {"measurement": "CL", "setting": "[4]; intravitreal dose 1.5 µg", "value": "0.0022 ± 0.0002", "unit": "mL/min"}, {"measurement": "CLD2", "setting": "[4]; intravitreal dose 1.5 µg", "value": "0.011 ± 0.002", "unit": "mL/min"}, {"measurement": "Cmax", "setting": "[4]; intravitreal dose 1.5 µg", "value": "3790 ± 1060", "unit": "ng/mL"}, {"measurement": "MRT", "setting": "[4]; intravitreal dose 1.5 µg", "value": "10.8 ± 1.5", "unit": "h"}, {"measurement": "Vss", "setting": "[4]; intravitreal dose 1.5 µg", "value": "1.41 ± 0.14", "unit": "mL"}, {"measurement": "AUC", "setting": "[4]; intravitreal dose 4.5 µg", "value": "1811 ± 269", "unit": "µg·min/mL"}, {"measurement": "Alpha", "setting": "[4]; intravitreal dose 4.5 µg", "value": "0.028 ± 0.011", "unit": "min⁻¹"}, {"measurement": "Alpha_HL", "setting": "[4]; intravitreal dose 4.5 µg", "value": "29 ± 16", "unit": "min"}, {"measurement": "Beta", "setting": "[4]; intravitreal dose 4.5 µg", "value": "0.0015 ± 0.0002", "unit": "min⁻¹"}, {"measurement": "Beta_HL", "setting": "[4]; intravitreal dose 4.5 µg", "value": "468 ± 82", "unit": "min"}, {"measurement": "CL", "setting": "[4]; intravitreal dose 4.5 µg", "value": "0.0025 ± 0.0004", "unit": "mL/min"}, {"measurement": "CLD2", "setting": "[4]; intravitreal dose 4.5 µg", "value": "0.003 ± 0.001", "unit": "mL/min"}, {"measurement": "Cmax", "setting": "[4]; intravitreal dose 4.5 µg", "value": "20160 ± 6120", "unit": "ng/mL"}, {"measurement": "MRT", "setting": "[4]; intravitreal dose 4.5 µg", "value": "6.97 ± 0.35", "unit": "h"}, {"measurement": "Vss", "setting": "[4]; intravitreal dose 4.5 µg", "value": "1.05 ± 0.013", "unit": "mL"}, {"measurement": "AUC", "setting": "[4]; intravitreal dose 15 µg", "value": "6167 ± 168", "unit": "µg·min/mL"}, {"measurement": "Alpha", "setting": "[4]; intravitreal dose 15 µg", "value": "0.027 ± 0.007", "unit": "min⁻¹"}, {"measurement": "Alpha_HL", "setting": "[4]; intravitreal dose 15 µg", "value": "27 ± 8", "unit": "min"}, {"measurement": "Beta", "setting": "[4]; intravitreal dose 15 µg", "value": "0.0017 ± 0.0003", "unit": "min⁻¹"}, {"measurement": "Beta_HL", "setting": "[4]; intravitreal dose 15 µg", "value": "414 ± 70", "unit": "min"}, {"measurement": "CL", "setting": "[4]; intravitreal dose 15 µg", "value": "0.0024 ± 0.0002", "unit": "mL/min"}, {"measurement": "CLD2", "setting": "[4]; intravitreal dose 15 µg", "value": "0.007 ± 0.001", "unit": "mL/min"}, {"measurement": "Cmax", "setting": "[4]; intravitreal dose 15 µg", "value": "32050 ± 4390", "unit": "ng/mL"}, {"measurement": "MRT", "setting": "[4]; intravitreal dose 15 µg", "value": "8.62 ± 1.33", "unit": "h"}, {"measurement": "Vss", "setting": "[4]; intravitreal dose 15 µg", "value": "1.25 ± 0.16", "unit": "mL"}]}
